# Legend:
# miR-17 [1] = assay: microRNA polysome shift assay (miPSA) in kidney of wild type mice; assay type: in vivo, mouse; set-up: scale not given here; conditions: seven days later
# Method: In vivo potency was evaluated using the microRNA polysome shift assay (miPSA). This assay was used to determine the extent to which compounds directly engage the miR-17 target in the kidney in normal and PKD mice. The miPSA relies on the principle that active miRNAs bind to their mRNA targets in translationally active high molecular weight (HMW) polysomes, whereas the inhibited miRNAs reside in the low MW (LMW) polysomes. Treatment with anti-miR results in a shift of the microRNA from HMW polysomes to LMW polysomes. Thus, the miPSA provides a direct measurement of microRNA target engagement by a complementary anti-miR (Androsavich et al., Nucleic Acids Research, 2015, 44: e13).
# Wild type mice were administered a single dose of 0.3 mg/kg, 3 mg/kg, or 30 mg/kg. Kidney tissue was collected seven days later and subjected to the miPSA. The mean displacement score for each treatment is shown in Table 15 (PBS, n=17; RGLS4326 30 mg/kg, n=10; all other treatments, n=4-5). The tested oligonucleotides displaced miR-17 from translationally active polysome (as measured by miPSA) in normal mouse kidneys.
# miR-17 [2] = assay: miR-17 PD-Sig in mouse kidney cell lines; assay type: cell-based
# Method: The activity of certain compounds was evaluated using a mouse miR-17 Pharmacodynamic-Signature (miR-17 PD-Sig), which consists of the expression of 18 unique miR-17 target genes normalized by six reference housekeeping genes, to provide an unbiased and comprehensive assessment of miR-17 activity. The mouse miR-17 PD-Sig score was the calculated average of the 18 genes' individual log 2 fold changes (normalized by six housekeeping genes) compared to mock transfection (Lee et al., Nat. Commun., 2019, 10, 4148).
# The PD-Sig for RGLS4326 in mIMCD3 cells (77.2, indicated by “*”) was not generated in this experiment; the value in Table 14 is that reported by Lee et al., Nat. Commun., 2019, 10, 4148. Blank cells in the table indicate that a compound was not tested in a particular cell line.
# miR-17 [3] = assay: miR-17 luciferase sensor assay in HeLa cells; assay type: cell-based
# Method: The in vitro potency of certain compounds was evaluated using a miR-17 luciferase sensor assay which uses a luciferase reporter vector for miR-17, with two fully complementary miR-17 binding sites in tandem in the 3′-UTR of the luciferase gene. HeLa cells were co-transfected with the luciferase reporter vector and an exogenous miR-17-expression vector that acted to repress the luciferase signal.
# AMPA-R = assay: [3H]AMPA radioligand binding assay on rat brain synaptic membranes;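 further: competition binding in which test compounds at rising concentrations displace [3H]AMPA from AMPA-R on rat brain synaptic membranes, with reduced bound radioligand as read-out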
# mice = conditions: in vivo
# Method: Each compound was tested in a single dose at 2000 mg/kg, and at escalating doses (100, 450, and 2000 mg/kg).
# C57Bl/6J male mice = assay: ICV maximum tolerated dose study, Study 1; assay type: in vivo, mouse; conditions: for Mortality/total number of mice: 7-day
# Method: Compounds (RG-NG-1017, RGLS4326, RG-NG-1001) were evaluated in a pilot maximum tolerated dose (MTD) study (discussed below). RG-NG-1017, RGLS4326 and RG-NG-1001 were initially evaluated at 4 dose-levels each. RG-NG-1017 was included for evaluation as a non-AMPA-R binding compound, as compared to RGLS4326 and RG-NG-1001, which bind AMPA-R. C57Bl/6J male mice (Jackson Laboratories), age 6-7 weeks, were used in this study. Mice were assigned randomly to treatment groups, and the study was blinded. Animals were allowed to acclimate for no less than 5 days and housed on a 12 hr light/dark cycle (lights on 7:00 AM). No more than 4 mice were house in each cage in a ventilated cage rack system. The diet consisted of standard rodent chow and water ad libitum.
# The following parameters were used for this study: • 1. Route(s) of administration: intracerebroventricular (ICV) dosing of RG-NG-1017, RG-NG-1001, RGLS4326 • 2. Dose Volume(s): 4 μL • 3. Formulation(s): vehicle, Ca^2+ and Mg^2+ free dPBS • 4. Dose Frequency: Once • 5. Study duration: 8 Days • 6. Number of Groups: 3 • 7. Number of animals per group: (2-4 each group) • 8. Total number of animals: […]
# For the ICV administration, mice were anesthetized and positioned for injections. The skin over the skull was incised, and a small hole was made in the skull above the target using a microdrill. The stereotactic coordinates were anteroposterior (AP), −0.4 mm; mediolateral (ML), +/−1.0-1.5 mm; dorsoventral (DV), −3.0 mm from the bregma for injection into both the right and left lateral cerebral ventricles (Hironaka et al, 2015). Animals were injected unilaterally with 4 μl into the right lateral cerebral ventricle. Compounds were injected over 1-2 min, and the needle was left in place for 0.5-1 min prior to withdrawal. The incision was closed with sutures, wound clips, or VetBond.
# Following ICV treatment (Day 0), animals were monitored for 7 days in which daily health checks, body weight, and mortality was recorded. On Day 7, brain and kidney were collected and fixed (10% formalin) and stored pending histology.
# AMPA-R (GluA1/GluA4) = molecular target: T1, AMPA-R (GluA1/GluA4) (Homo sapiens, UniProt P42261+P48058); assay: Manual whole-cell patch clamp, ChanTest GluA1/GluA4 EZCells; assay type: cell-based
# T1 construct: host or cells: ChanTest GluA1/GluA4 EZCells
# Method: To evaluate functional antagonism of anti-miR-17 oligonucleotides towards the AMPA-R, certain oligonucleotides were tested using the manual whole-cell patch clamp technique, which records membrane currents as a measure of AMPA-R activity.
# Manual whole-cell patch clamp studies were performed by Metrion Biosciences (Cambridge, UK). Whole-cell voltage clamp experiments were performed at room temperature (18-21° C.) using an EPC10 patch clamp amplifier using Patchmaster software (HEKA Elektronik). Glass patch pipettes were fabricated from borosilicate glass capillaries (Harvard Apparatus) to resistances between 1.4 and 2.5 MΩ. Membrane currents were recorded using the whole-cell patch clamp technique. ChanTest® GluA1/GluA4 EZCells were clamped at a holding potential of −80 mV and membrane currents elicited by 10 μM(S)-AMPA delivered using a VC38 perfusion system (ALA Scientific Instruments). The […] current amplitude values were measured with each application of 10 μM(S)-AMPA. The fractional change of current amplitude produced by each concentration of compound was calculated relative to the control current (pre-compound) and expressed as percentage change (% inhibition) for each cell. RGLS4326 was tested in a separate study from all other compounds in Table 6.
# miR-17 [4] = assay: miR-17 PD-Sig in human kidney cell lines; assay type: cell-based
# T1 sequence (P42261 19-906): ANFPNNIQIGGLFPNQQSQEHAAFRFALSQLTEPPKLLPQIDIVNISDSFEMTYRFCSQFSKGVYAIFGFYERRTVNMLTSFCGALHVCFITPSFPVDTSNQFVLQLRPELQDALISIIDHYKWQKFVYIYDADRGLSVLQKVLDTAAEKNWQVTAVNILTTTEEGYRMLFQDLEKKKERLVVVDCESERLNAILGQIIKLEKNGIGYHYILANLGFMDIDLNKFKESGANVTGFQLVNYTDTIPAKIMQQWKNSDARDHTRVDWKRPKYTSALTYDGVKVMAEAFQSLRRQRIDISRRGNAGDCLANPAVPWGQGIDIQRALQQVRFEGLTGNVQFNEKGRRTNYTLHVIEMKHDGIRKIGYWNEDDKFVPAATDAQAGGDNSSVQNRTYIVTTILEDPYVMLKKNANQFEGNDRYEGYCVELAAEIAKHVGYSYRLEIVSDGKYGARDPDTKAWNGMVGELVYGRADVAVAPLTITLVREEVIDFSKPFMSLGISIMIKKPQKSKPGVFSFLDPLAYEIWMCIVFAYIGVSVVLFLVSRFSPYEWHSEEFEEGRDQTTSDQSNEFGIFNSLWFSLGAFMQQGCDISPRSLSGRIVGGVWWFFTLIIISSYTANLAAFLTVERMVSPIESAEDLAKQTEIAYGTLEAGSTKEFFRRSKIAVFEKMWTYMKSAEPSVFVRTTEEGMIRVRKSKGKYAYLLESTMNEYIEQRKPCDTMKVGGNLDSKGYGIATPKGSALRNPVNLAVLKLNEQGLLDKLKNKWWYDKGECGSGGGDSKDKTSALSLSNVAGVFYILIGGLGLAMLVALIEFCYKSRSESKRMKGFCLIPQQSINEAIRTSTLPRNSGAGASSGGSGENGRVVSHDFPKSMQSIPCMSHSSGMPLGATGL
# T1 sequence (P48058 21-902): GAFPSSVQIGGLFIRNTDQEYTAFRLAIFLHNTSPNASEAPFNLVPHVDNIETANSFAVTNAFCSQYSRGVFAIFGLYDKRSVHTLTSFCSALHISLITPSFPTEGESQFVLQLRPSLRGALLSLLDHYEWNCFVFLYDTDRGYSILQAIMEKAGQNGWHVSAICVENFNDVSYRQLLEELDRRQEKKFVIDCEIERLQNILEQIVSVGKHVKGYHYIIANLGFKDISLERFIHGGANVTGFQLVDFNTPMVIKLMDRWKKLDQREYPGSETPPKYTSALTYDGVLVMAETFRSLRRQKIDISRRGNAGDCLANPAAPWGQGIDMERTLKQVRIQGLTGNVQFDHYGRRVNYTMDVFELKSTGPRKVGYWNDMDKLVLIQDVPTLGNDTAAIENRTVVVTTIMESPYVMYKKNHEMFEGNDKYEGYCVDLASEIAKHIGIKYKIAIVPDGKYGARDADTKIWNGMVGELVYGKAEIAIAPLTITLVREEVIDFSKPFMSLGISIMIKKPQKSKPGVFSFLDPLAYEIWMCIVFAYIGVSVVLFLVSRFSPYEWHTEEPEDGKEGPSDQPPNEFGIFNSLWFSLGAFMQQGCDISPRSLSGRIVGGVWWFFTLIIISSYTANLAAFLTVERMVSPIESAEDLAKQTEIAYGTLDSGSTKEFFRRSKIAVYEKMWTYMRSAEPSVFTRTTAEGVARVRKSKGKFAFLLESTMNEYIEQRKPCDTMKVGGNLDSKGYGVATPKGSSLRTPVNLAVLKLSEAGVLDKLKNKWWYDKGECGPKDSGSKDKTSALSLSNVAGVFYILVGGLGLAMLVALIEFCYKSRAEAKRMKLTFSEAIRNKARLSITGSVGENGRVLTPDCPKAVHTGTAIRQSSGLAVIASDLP
sequence,measurement,setting,value
ASGSCMAFCFUFUMUSUS [RG-NG-1017],"miPSA Displacement Score, Mean",miR-17 [1]; single dose 3 mg/kg,2.292
same,"miPSA Displacement Score, Mean",miR-17 [1]; single dose 30 mg/kg,2.793
same,"miPSA Displacement Score, Mean",miR-17 [1]; single dose 0.3 m/kg,2.077
same,EC50,"miR-17 [2]; D52B5, mouse, PKD",74.1 nM
same,EC50,"miR-17 [2]; mIMCD3, mouse, Normal",134 nM
same,Log2FC (37.5 nM),miR-17 [3]; 37.5 nM,2.67
same,EC50,"miR-17 [3]; HeLa cells, 18- to 24-hour transfection",15 nM
same,IC50,AMPA-R; Experiment #2,> 100 µM
same,% Inhibition @ 0.1 uM,"AMPA-R; Experiment #2, 0.1 uM",0.2%
same,% Inhibition @ 1 uM,"AMPA-R; Experiment #2, 1 uM",−1.3%
same,% Inhibition @ 10 uM,"AMPA-R; Experiment #2, 10 uM",4.3%
same,% Inhibition @ 100 uM,"AMPA-R; Experiment #2, 100 uM",8.1%
same,CNS toxicity in high-dose mouse toxicity studies,mice,no CNS-toxicity were observed
same,CNS-related findings noted,"mice; mouse, sc, 2000 mg/kg",No
same,MTD higher than that of RGLS4326,C57Bl/6J male mice; single ICV,> 40 fold
same,Mortality/total number of mice,C57Bl/6J male mice; single ICV 50 μg,0/2
same,Mortality/total number of mice,C57Bl/6J male mice; single ICV 100 μg,0/2
same,Mortality/total number of mice,C57Bl/6J male mice; single ICV 300 μg,1/2
same,Mortality/total number of mice,C57Bl/6J male mice; single ICV 600 μg,0/2
same,MTD,"C57Bl/6J male mice; single ICV, C57Bl/6J mice, predicted from the study",no established MTD
same,% Inhibition on membrane currents evoked with 10 uM (s)-AMPA (Mean ± SD),AMPA-R (GluA1/GluA4); 0.3 uM compound,20.0 ± 6.3%
same,% Inhibition on membrane currents evoked with 10 uM (s)-AMPA (Mean ± SD),AMPA-R (GluA1/GluA4); 3 uM compound,28.2 ± 5.5%
same,functional antagonism towards AMPA-R relative to RGLS4326,AMPA-R (GluA1/GluA4); in words,reduced functional antagonism towards AMPA-R
same,EC50,"miR-17 [4]; HK-2, human, Normal",49.2 nM
same,EC50,"miR-17 [4]; WT9-7, human, PKD",20.1 nM

# From US12559750B2, “Methods and compositions for treatment of polycystic kidney disease” (Regulus Therapeutics Inc., priority 2021, dated 2026)
